The source of these data is patent US20100120762A1, “Triazine derivatives as inhibitors of phosphodiesterases” (WYETH, priority 2008, published 2010).

“Also recorded” adds a separate entry of the source. Where only a bound is given, the exact number is not on record here.

In one data set the target is T1, PDE2A (NM002599) (Homo sapiens, UniProt O00408).
T1 construct: made in house; host or cells: baculovirus / SF21 insect cells
Put plainly: Inhibition of recombinant PDE2A (expressed in baculovirus/SF21-cells). The settings on record: recombinant PDE2A, 0.5 μM [3H]-cAMP, 1000 nM cGMP, 37° C., 30 minutes, SPA; read-out: PDE2A IC50. It is filed as biochemical. The procedure, abridged: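 Membrane fraction from SF21 cells, assayed in 50 mM Tris-HCl/5 mM MgCl2 (pH 7.4) with 0.5 μM [3H]-cAMP plus 1000 nM cGMP as stimulator; non-specific activity was measured without cGMP. Reaction ran 30 min at 37° C, was stopped with SPA beads and read by scintillation counting. IC50 came from a Hill-plot 2-parameter model.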

The target in the next data set is T2, PDE10A1 (AB 020593) (Homo sapiens, UniProt Q9Y233).
T2 construct: made in house; host or cells: baculovirus / SF21 insect cells (gene synthesized by Entelechon GmbH)
T2 sequence (Q9Y233 other isoform, or with tags, fused parts or gaps): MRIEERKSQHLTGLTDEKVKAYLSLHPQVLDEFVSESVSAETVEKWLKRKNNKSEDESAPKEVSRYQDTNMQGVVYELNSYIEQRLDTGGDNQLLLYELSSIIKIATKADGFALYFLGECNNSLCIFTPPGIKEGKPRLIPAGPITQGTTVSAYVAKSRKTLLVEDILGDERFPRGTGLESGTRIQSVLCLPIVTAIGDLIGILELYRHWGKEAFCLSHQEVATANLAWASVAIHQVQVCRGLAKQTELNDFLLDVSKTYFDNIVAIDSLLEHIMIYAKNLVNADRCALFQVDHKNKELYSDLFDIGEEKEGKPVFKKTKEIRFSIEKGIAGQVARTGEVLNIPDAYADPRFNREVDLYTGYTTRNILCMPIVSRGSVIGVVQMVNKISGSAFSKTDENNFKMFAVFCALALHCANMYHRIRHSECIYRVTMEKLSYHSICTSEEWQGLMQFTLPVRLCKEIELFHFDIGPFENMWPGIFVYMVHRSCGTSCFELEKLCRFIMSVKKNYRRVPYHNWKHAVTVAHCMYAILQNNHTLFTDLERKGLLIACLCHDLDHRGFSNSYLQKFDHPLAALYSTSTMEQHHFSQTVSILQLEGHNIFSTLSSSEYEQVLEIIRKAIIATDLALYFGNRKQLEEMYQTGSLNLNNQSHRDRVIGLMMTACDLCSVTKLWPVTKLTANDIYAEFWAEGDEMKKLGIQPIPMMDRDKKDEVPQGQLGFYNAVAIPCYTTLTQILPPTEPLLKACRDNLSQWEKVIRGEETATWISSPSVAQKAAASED
The data set can be described thus: Inhibition of recombinant PDE10A (baculovirus/SF21 system). The settings on record: recombinant cytosolic PDE10A, 0.1 μM [3H]-cAMP, 37° C., 30 minutes, SPA; read-out: PDE10A IC50. It is filed as biochemical. The procedure, abridged: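 Cytosolic PDE10A1 expressed in SF21 cells via baculovirus, incubated with 0.1 μM [3H]-cAMP in 50 mM Tris-HCl/5 mM MgCl2, pH 7.4, 30 min at 37 °C. SPA-bead scintillation read-out, with enzyme-free wells as background. IC50 from Hill plot, 2-parameter model.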

Another data set has as its system Female Wistar-rats. The data set can be described thus: Novel object recognition test. It is filed as in vivo, rat. The following applies: MK-801 0.025 mg/kg intraperitoneally, compound given orally 30 min prior to the test session, FIG. 3. Here is the method:
The novel object recognition is an animal model of learning and memory (Rutten et al., 2006a, 2006b).
The novel object recognition is performed in glass aquaria (40×60×40 cm) that have 3 black walls and one transparent wall. The floor consists of black, antislip PVC. Objects of different material (iron, plastic, coated hardwood) and forms and similar size are used for the experiment. The objects are positioned 10 cm from the wall and 35-40 cm from each other. Female Wistar-rats are used for this experiment.
One day before the experiment rats have 15 min to habituate to the arena and two objects.
On the first day of the experiment rats are placed into the arena and have five min to explore two equal objects. To disturb the learning process, MK-801 at 0.025 mg/kg is administered intraperitoneally on the first day of the experiment 30 min before the test starts.
On the second day of the experiment (24 h later) rats are again placed into the arena and have 5 min to explore one of the old objects and a novel object. […]
The following parameters are recorded: • 1. the time the rats spent with each object on the first day • 2. the time the rats spent with each object on the second day • 3. percent of time rats spent with the novel object on the second day […]
Results are analyzed by t-test (two groups) or one way analysis of variance (ANOVA) when several groups are compared. […]

In data set [1] the test system is mice. The data set can be described thus: Light and dark box test. It is filed as in vivo, mouse. The following applies: 5 min exploration, FIG. 2. The text has this:
The light and dark box is an established animal model of anxiety (Crawley, 1985). The light and dark box consists of two chambers (each 30×30 cm) that are connected by an opening. There is an aversive chamber with white walls that is brightly lit (600 lux) and a dark chamber with black walls that is only lit by an infrared lamp ([…]). Untreated mice predominately stay in the dark chamber whereas mice treated with an anxiolytic compound go more often into the light chamber resulting in an increased number of transitions between the boxes and increased time in the light box. In addition the distance traveled in the dark chamber is regarded as an activity-related parameter. For the experiment, mice are placed in the light box after the pre-treatment time. Recording time starts when the mouse enters the dark box for the first time. Then the animal has 5 min to explore the two chambers. The behavior of the mice is recorded by video and analyzed by VideoMot 2 (TSE systems, Germany). […] Results are analyzed by t-test (two groups) or one way analysis of variance (ANOVA) when several groups are compared. Tukey test is used for individual comparison. P<0.05 is regarded as significant.

The test system of data set [2] is mice. The data set can be described thus: Forced swim test. It is filed as in vivo, mouse. The following applies: immobility recorded during last 4 min of 6 min, FIG. 1. On the procedure: The forced swim test is an established animal model of depression (Yacoubi et al., 2001). Mice which are forced to swim in a restricted area from which they cannot escape will rapidly cease attempts to escape and adopt a characteristic immobile posture which can be readily identified and timed. Immobility is taken as depression-related behaviour in the animal (Porsolt, 1979). For the test a glass cylinder (height: 20 cm, internal diameter: 15 cm) containing 11 cm water maintained at 23° C. is used. On the day of experiment the mice are forced to swim in the water for 6 min and the immobility time is recorded during the last 4 min of the 6-min-period. Afterwards animals are removed from the water, dried with a paper towel and put under infrared light. […] Results are analyzed by t-test (two groups) or one way analysis of variance (ANOVA) when several groups are compared. Tukey test is used for individual comparison. P<0.05 is regarded as significant.

As a reminder, the melting point is the temperature of the solid-liquid transition. For orientation: IC50 means the concentration at which inhibition is half-maximal.

T1 sequence (O00408 whole entry): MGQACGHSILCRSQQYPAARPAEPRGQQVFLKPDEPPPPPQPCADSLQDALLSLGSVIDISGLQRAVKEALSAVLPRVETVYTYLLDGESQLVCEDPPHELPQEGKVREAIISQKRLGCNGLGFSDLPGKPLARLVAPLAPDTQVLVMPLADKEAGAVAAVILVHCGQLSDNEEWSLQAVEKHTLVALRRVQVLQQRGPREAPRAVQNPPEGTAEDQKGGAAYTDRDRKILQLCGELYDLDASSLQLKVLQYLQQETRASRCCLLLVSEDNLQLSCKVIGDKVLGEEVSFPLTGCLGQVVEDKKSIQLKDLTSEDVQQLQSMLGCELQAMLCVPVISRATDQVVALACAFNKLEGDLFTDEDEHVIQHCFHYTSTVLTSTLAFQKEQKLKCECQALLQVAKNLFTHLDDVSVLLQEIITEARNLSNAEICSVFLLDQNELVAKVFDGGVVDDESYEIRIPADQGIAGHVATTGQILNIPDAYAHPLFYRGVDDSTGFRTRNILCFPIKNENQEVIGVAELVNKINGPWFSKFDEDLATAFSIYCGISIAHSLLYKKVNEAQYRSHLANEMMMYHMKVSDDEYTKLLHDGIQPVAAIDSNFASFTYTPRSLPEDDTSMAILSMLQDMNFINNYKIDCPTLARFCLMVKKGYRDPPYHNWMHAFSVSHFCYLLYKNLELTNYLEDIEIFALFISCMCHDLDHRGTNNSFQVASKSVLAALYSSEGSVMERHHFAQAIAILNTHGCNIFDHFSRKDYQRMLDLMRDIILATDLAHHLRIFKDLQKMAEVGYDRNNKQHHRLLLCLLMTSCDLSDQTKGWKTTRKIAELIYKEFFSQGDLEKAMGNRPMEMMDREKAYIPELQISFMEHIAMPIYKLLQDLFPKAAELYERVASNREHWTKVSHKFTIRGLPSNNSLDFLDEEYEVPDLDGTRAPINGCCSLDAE

The compound `Cc1nc(-c2cc(Cl)ccc2Cl)n2c1nnc1ccc(Cl)nc12` [Example 118, 8-chloro-1-(2,5-dichloro-phenyl)-3-methyl-imidazo[5,1-c]pyrido[2,3-e][1,2,4]triazine] showed a melting point of 151 to 154 °C. In addition, the half-inhibitory concentration (IC50) on PDE2A (NM002599) was 11.8 nM. In addition, the concentration for half-maximal inhibition (IC50) on PDE10A1 (AB 020593) was 228 nM.
For `CCc1ncc2nnc3ccc(OC)nc3n12` [Example 3, 1-ethyl-8-methoxy-imidazo[5,1-c]pyrido[2,3-e][1,2,4]triazine], in that order: 167 to 168 °C, more than 1000 nM and 4460 nM.
As to `COc1ccc2nnc3cnc(C(C)C)n3c2n1` [Example 7, 1-isopropyl-8-methoxy-imidazo[5,1-c]-pyrido[2,3-e][1,2,4]triazine], the melting point was in the range of 159 to 162 °C. Also, at PDE2A (NM002599), the IC50 was 2980 nM. For the same compound, the IC50 at PDE10A1 (AB 020593) amounted to 2890 nM.
`CCC(C)c1nc(C)c2nnc3ccc(OC)nc3n12` (centres unmarked) [Example 12, 8-methoxy-3-methyl-1-(sec-butyl)-imidazo[5,1-c]-pyrido[2,3-e][1,2,4]triazine] returned a melting point of 157 to 159 °C. Further, the IC50 on PDE2A (NM002599) was 136 nM. On PDE10A1 (AB 020593), the IC50 came out at 94.8 nM.
As to `Cc1cn(-c2ccc3nnc4c(C)nc(-c5cc(Cl)ccc5Cl)n4c3n2)c(-c2cc(Cl)ccc2Cl)n1` [Example 119, 1-(2,5-dichloro-phenyl)-8-[2-(2,5-dichloro-phenyl)-4-methyl-imidazol-1-yl]-3-methyl-imidazo[5,1-c]pyrido[2,3-e][1,2,4]triazine], the melting point was found to be 130 °C. Further, the IC50 at PDE2A (NM002599) was determined as 41 nM. In addition, at PDE10A1 (AB 020593), the IC50 stood at 240 nM.
The corresponding values for `CCc1nc(C)c2nnc3ccc(OC)nc3n12` [Example 2, 1-ethyl-8-methoxy-3-methyl-imidazo[5,1-c]pyrido[2,3-e][1,2,4]triazine] are 202 to 203 °C, 399 nM and 297 nM.
The compound `COc1ccc2nnc3c(C)nc(-c4ccccn4)n3c2n1` [Example 10, 8-methoxy-3-methyl-1-(2-pyridyl)-imidazo[5,1-c]-pyrido[2,3-e][1,2,4]triazine] showed a melting point of 216 to 220 °C. Moreover, at PDE2A (NM002599), the IC50 stood at 2200 nM. Besides, the IC50 on PDE10A1 (AB 020593) was found to be 3810 nM.
As for `COc1ccc2nnc3c(C)nc(C4CCCCC4)n3c2n1` [Example 11, 8-methoxy-3-methyl-1-(cyclohexyl)-imidazo[5,1-c]-pyrido[2,3-e][1,2,4]triazine], the melting point fell in the range of 174 to 177 °C. On PDE2A (NM002599), the IC50 came to 56.3 nM. Further, at PDE10A1 (AB 020593), the IC50 was found to be 41.4 nM.
In turn, `COc1ccc2nnc3c(C4CC4)nc(-c4cccc(Cl)c4)n3c2n1` [Example 121, 1-(3-Chloro-phenyl)-3-cyclopropyl-8-methoxy-imidazo[5,1-c]pyrido[2,3-e][1,2,4]triazine] yielded a melting point of 155 °C. Besides, at PDE2A (NM002599), the concentration for half-maximal inhibition (IC50) came out at 136 nM. Besides, the IC50 at PDE10A1 (AB 020593) was more than 500 nM.
In the case of `COc1ccc2nnc3c(C)nc(CC(C)C)n3c2n1` [Example 13, 8-methoxy-3-methyl-1-(iso-butyl)-imidazo[5,1-c]-pyrido[2,3-e][1,2,4]triazine], the melting point was in the range of 143.5 to 145 °C. Moreover, at PDE2A (NM002599), the half-maximal inhibitory concentration (IC50) was determined as 30.3 nM. Besides, the IC50 at PDE10A1 (AB 020593) turned out to be 12.9 nM.
For the compound `COc1ccc2nnc3c(C4CC4)nc(-c4ccccn4)n3c2n1` [Example 122, 3-Cyclopropyl-8-methoxy-1-pyridin-2-yl-imidazo[5,1-c]pyrido[2,3-e][1,2,4]triazine], the melting point fell in the range of 162 to 164 °C. Further, the IC50 at PDE2A (NM002599) was 5190 nM. Further, the IC50 at PDE10A1 (AB 020593) stood at 8100 nM.
The corresponding values for `CCCc1nc(C)c2nnc3ccc(OC)nc3n12` [Example 1, 8-methoxy-3-methyl-1-propyl-imidazo[5,1-c]-pyrido[2,3-e][1,2,4]triazine] are 163 to 165 °C, 88.8 nM and 102 nM.
On to `COc1ccc2nnc3c(C)nc(-c4ccccc4Cl)n3c2n1` [Example 6, 1-(2-chlorophenyl)-8-methoxy-3-methyl-imidazo[5,1-c]-pyrido[2,3-e][1,2,4]triazine], for which, in the data set on Female Wistar-rats, the “effect in the novel object recognition test (cognition enhancing)” value is listed as “significant effect”. In the data set on mice [1], the “effect in the light and dark box test (anxiolytic)” value is “anxiolytic effect; also recorded: significant effect”. Also, the “effect in the forced swim test (antidepressant; immobility time)” value with mice [2] is given as “antidepressant effect; also recorded: significant effect”. Further, the IC50 is 3.83 nM on PDE2A (NM002599) and 20.9 nM at PDE10A1 (AB 020593).
Take `c1ccc(-c2ncn3c2nnc2cccnc23)cc1` [Example 125, 3-phenyl-imidazo[5,1-c]pyrido[2,3-e][1,2,4]triazine]: the melting point is 225 to 227 °C. Also, the IC50 on PDE2A (NM002599) is more than 1000 nM. Besides, the IC50 on PDE10A1 (AB 020593) is more than 1000 nM.
Compound `COc1ccc2nnc3cnc(-c4ccccc4Cl)n3c2n1` [Example 8, 1-(2-chlorophenyl)-8-methoxy-imidazo[5,1-c]pyrido[2,3-e][1,2,4]triazine] showed a melting point of 190 to 193 °C. Besides, on PDE2A (NM002599), the IC50 came out at 96.5 nM. On PDE10A1 (AB 020593), the IC50 is 454 nM.
